# “And” between values parts separate entries of the source, which are not always exact repeats. Equal entries are not always repeated. Where two headings read alike, the source gives them in different places.
# Tests used:
# [1] = tested on: S. aureus SH1000; assay: Adhesion of S. aureus SH1000 to fibronectin; assay type: cell-based, Staphylococcus aureus; conditions: fibronectin 20 μg/mL, Fig. S2
# Method: (§1) Adhesion assays were carried out according to Hartford et al. ([37]). Briefly, plates were coated with 10 μg/mL fibrinogen (Calbiochem, Darmstadt, Germany) or 20 μg/mL fibronectin (Sigma-Aldrich, Ireland) for 2 h at 37°C or for 16 h at 4°C. Plates were blocked with 1% BSA at 37°C for 1 h and washed 3 times in PBS. Washed bacteria were incubated at 37°C for 2 h. Adherent bacteria were washed three times in PBS and fixed in 5–9% formaldehyde at room temperature for 30 min. Wells were washed three times in PBS and stained using 5% crystal violet for 20 min. Wells were washed three times in PBS, and the crystal violet solubilized using 5% acetic acid. Plates were read at 570 nm on a Wallac Victor2, (Shelton, CT, USA). The minimum adhesion inhibitory concentration (MAIC) was determined as the concentration inhibiting greater than 90% bacterial adhesion. […]
# fibronectin. Fibronectin was used to coat plates at 4 °C overnight at 20 μg/mL.
# Wells were washed with PBS and blocked with 1% BSA. Washed bacteria (OD600 of 1) were added with the relevant concentration of allantodapsone or vehicle control, and incubated for 2 hours at 37 °C. Adherent cells were washed, fixed, stained with crystal violet and wells further washed. The dye was dissolved in acetic acid and the absorbance measured at 570 nm. […]
# [2] = tested on: S. aureus SH1000; assay: Adhesion of S. aureus SH1000 to immobilized fibrinogen (crystal violet); assay type: cell-based, Staphylococcus aureus; conditions: for IC50: Staphylococcus aureus
# Method: (§2) FIG 2 Allantodapsone inhibits S. aureus adhesion to fibrinogen. (A) S. aureus Newman stationary phase and (B) exponential phase. (C) S. aureus SH1000 stationary phase and (D) exponential phase bacteria. Fibrinogen was used to coat plates at 4°C overnight at 10 μg/mL. Wells were washed with PBS and blocked with 1% BSA. Washed bacteria (OD600 of 1) were mixed with the relevant concentration of allantodapsone or vehicle control for 5 min, and added to the wells, incubating for 2 h at 37°C. Adherent cells were washed, fixed, and stained with crystal violet, and wells further washed. The dye was dissolved in acetic acid and the absorbance measured at 570 nm. Compounds were screened at a concentration of 70 μM and compared to their vehicle control. Statistical analysis was carried out using repeated measures ANOVA followed by multiple comparisons Dunnett’s tests using GraphPad PRISM. **, P ≤ 0.01; ***, P ≤ 0.001; ****, P ≤ 0.0001 (n = 3).
# (§3) Adhesion assays were carried out according to Hartford et al. ([37]). Briefly, plates were coated with 10 μg/mL fibrinogen (Calbiochem, Darmstadt, Germany) or 20 μg/mL fibronectin (Sigma-Aldrich, Ireland) for 2 h at 37°C or for 16 h at 4°C. Plates were blocked with 1% BSA at 37°C for 1 h and washed 3 times in PBS. Washed bacteria were incubated at 37°C for 2 h. Adherent bacteria were washed three times in PBS and fixed in 5–9% formaldehyde at room temperature for 30 min. Wells were washed three times in PBS and stained using 5% crystal violet for 20 min. Wells were washed three times in PBS, and the crystal violet solubilized using 5% acetic acid. Plates were read at 570 nm on a Wallac Victor2, (Shelton, CT, USA). The minimum adhesion inhibitory concentration (MAIC) was determined as the concentration inhibiting greater than 90% bacterial adhesion.
# (§4) Compounds were added to the bacterial suspension prior to addition to the wells. In each experiment, vehicle controls were prepared using the same volume of vehicle for the matching test compound.
# [3] = tested on: L. lactis ClfB; assay: Adhesion of L. lactis ClfB to immobilized fibrinogen; assay type: cell-based, Lactococcus lactis
# Method: (§5) FIG 1 Allantodapsone inhibits S. aureus Newman adhesion to fibrinogen. Dose response curves for S. aureus Newman (A), L. lactis ClfA (B), and L. lactis ClfB (C) adhesion to fibrinogen. Fibrinogen was used to coat plates at 4°C overnight at 10 μg/mL. Wells were washed with PBS and blocked with 1% BSA. Washed bacteria (OD600 of 1) were mixed with the relevant concentration of allantodapsone or vehicle control (DMSO) for 5 min, and added to the wells, incubating for 2 h at 37°C. Adherent cells were washed, fixed, and stained with crystal violet, and wells further washed. The dye was dissolved in acetic acid and the absorbance measured at 570 nm. IC50 values were generated using GraphPad Prism 9.0 GraphPad software, San Diego, CA. Data are representative of three experiments with error presented as SEM.
# as §1, with “Adherent bacteria were washed three times in PBS and fixed in 5–9% formaldehyde at room temperature for 30 min. Wells were washed three times in PBS and stained using 5% crystal violet for 20 min. Wells were washed three times in PBS, and the crystal violet solubilized using 5% acetic acid.” left out
# [4] = tested on: S. aureus Newman; assay: Antimicrobial assay (bacterial growth in BHI broth); assay type: cell-based, Staphylococcus aureus; conditions: overnight in BHI broth, allantodapsone up to 100 μM, versus vehicle control
# Method: S. aureus was grown in BHI broth shaking overnight at 37°C in the presence of a range of concentrations of allantodapsone, dapsone, or ampicillin as control. Absorbance was measured the following day at 570 nm. Data have been normalized to the relevant vehicle control (1% DMSO for allantodapsone and dapsone and water for ampicillin). […] Error bars represent SEM.
# S. aureus was grown overnight in BHI broth at 37°C in shaking incubator. Wells were inoculated with 10 μL of overnight culture into 90 μL of broth containing the test compounds or controls. A growth control containing no agents was used (positive control), a sterility control of broth alone was included, and vehicle controls were included for each test compound. Plates were incubated overnight at 37°C and absorbance measured at 570 nm the following day using a Wallac Victor2, (Shelton, CT, USA).
# [5] = tested on: S. aureus Newman; assay: Adhesion of S. aureus Newman to immobilized fibrinogen (crystal violet); assay type: cell-based, Staphylococcus aureus
# Method: as §5, §2, §3, §4
structure (smiles),measurement,setting,value
Nc1ccc(S(=O)(=O)c2ccc(NCN3C(=O)NC(=O)C(=O)C3=O)cc2)cc1 [Allantodapsone],inhibition of adhesion to fibronectin (words),[1],does not inhibit
same,inhibition of adhesion to fibronectin (words),[1]; listed as allantodapsone,did not inhibit
same,inhibition of adhesion to fibrinogen,"[2]; S. aureus SH1000, stationary and exponential phase, compounds screened at 70 μM (Fig. 2)",inhibited
same,IC50,"[2]; SH1000, read-out: IC50, inhibition of adhesion to fibrinogen, S. aureus SH1000 exponential phase",15.6 µM
same,IC50,"[2]; SH1000, read-out: IC50, inhibition of adhesion to fibrinogen, S. aureus SH1000 stationary phase",7.6 µM
same,minimum adhesion inhibitory concentration (MAIC),"[3]; L. lactis ClfB, fibrinogen",33 μM and 13.3 μg/mL
same,IC50,"[3]; Lactococcus lactis, read-out: IC50, inhibition of adhesion to fibrinogen",11 µM
same,inhibition of bacterial growth (words),[4],does not inhibit bacterial growth
same,inhibition of bacterial growth (words),[4]; listed as allantodapsone,no inhibition of bacterial growth
same,minimum adhesion inhibitory concentration (MAIC),"[5]; S. aureus Newman stationary phase, concentration inhibiting greater than 90% adhesion to fibrinogen",100 μM and 40.2 μg/mL
same,inhibition of adhesion to fibrinogen,"[5]; S. aureus Newman, stationary and exponential phase, compounds screened at 70 μM (Fig. 2)",inhibited
same,IC50,"[5]; Staphylococcus aureus, NEWMAN, read-out: IC50, inhibition of adhesion to fibrinogen, S. aureus Newman exponential phase",32.8 µM
same,IC50,"[5]; Staphylococcus aureus, NEWMAN, read-out: IC50, inhibition of adhesion to fibrinogen, S. aureus Newman stationary phase, fibrinogen 10 μg/mL",23 µM
same,IC50,"[5]; read-out: IC50, inhibition of adhesion to fibrinogen, S. aureus Newman stationary phase, fibrinogen 10 μg/mL",21.3 µM

# — paper PMC9241669, “Allantodapsone is a Pan-Inhibitor of Staphylococcus aureus Adhesion to Fibrinogen, Loricrin, and Cytokeratin 10” (Microbiology Spectrum, 2022)
